Reference: patent publication US20220339143A1, “TAK-925 FOR USE IN TREATING NARCOLEPSY” (Takeda Pharmaceutical Company Limited, priority 2019, published 2022)

Experiment: Single dose PK in healthy subjects (Cohorts 1, 2, S1 and S2), plasma
Type: in vivo, human
Procedure: This study investigates (i) the safety and tolerability of Compound A (methyl (2R,3S)-3-((methylsulfonyl)amino)-2-(((cis-4-phenylcyclohexyl)oxy)methyl)piperidine-1-carboxylate) when a single dose given as a 9 hour continuous IV infusion is administered to healthy adults, healthy elderly subjects and patients with narcolepsy type 1 (NT1); (ii) the pharmacokinetics of Compound A when a single dose given as a 9 hour continuous IV infusion is administered to healthy adults, healthy elderly subjects and patients with narcolepsy type 1; and (iii) the pharmacodynamics (PD) effects of Compound A, primarily by evaluation of the sleep latency on MWT when a single dose given as a 9 hour continuous IV infusion is administered to patients with narcolepsy type 1.
Pharmacokinetics: Concentrations of Compound A in plasma, and CSF, and pharmacokinetics parameters.
On average, the time to reach the plateau appeared to be approximately 3 to 4 hours after the start of infusion. […] After switching off the IV infusion, Compound A plasma concentrations declined rapidly and in a biphasic manner with a mean terminal disposition phase t1/2z ranging approximately from 3.4 to 5.1 hours across all doses. […] Table 5 provides a summary of plasma concentrations of Compound A after a single IV infusion in healthy subjects. Table 6 provides a summary of pharmacokinetic parameters of Compound A after a single IV infusion in healthy subjects.

[1] = 7 mg single IV infusion, healthy subjects
[2] = 7 mg, 0.17 hr After End of Infusion
[3] = 14 mg single IV infusion, healthy subjects
[4] = 28 mg single IV infusion, healthy subjects
[5] = 28 mg, 0.17 hr After End of Infusion
[6] = 28 mg, 0.33 hr After End of Infusion
[7] = 28 mg, 0.5 hr After End of Infusion
[8] = 28 mg, 0.75 hr After End of Infusion
[9] = 28 mg, 1 hr After End of Infusion
[10] = 28 mg, 1.5 hr After End of Infusion
[11] = 28 mg, 2 hr After End of Infusion
[12] = 56 mg single IV infusion, healthy subjects
[13] = 56 mg, 0.17 hr After End of Infusion
[14] = 56 mg, 0.33 hr After End of Infusion
[15] = 56 mg, 0.5 hr After End of Infusion
[16] = 56 mg, 0.75 hr After End of Infusion
[17] = 56 mg, 1 hr After End of Infusion
[18] = 56 mg, 1.5 hr After End of Infusion

COC(=O)N1CCC[C@H](NS(C)(=O)=O)[C@@H]1CO[C@H]1CC[C@@H](c2ccccc2)CC1 [Compound A, methyl (2R,3S)-3-((methylsulfonyl)amino)-2-(((cis-4-phenylcyclohexyl)oxy)methyl)piperidine-1-carboxylate]
AUCinf D Mean [1]: 20.48 ng·h/mL/mg | AUCinf D Median [1]: 20.80 ng·h/mL/mg | CL Median [1]: 48.10 L/h | Cmax D Mean [1]: 2.416 ng/mL/mg | Cmax D Median [1]: 2.360 ng/mL/mg | Vss Median [1]: 100.0 L | t½z Mean [1]: 4.120 h | t½z Median [1]: 3.220 h | Plasma concentration, Mean [2]: 9.360 ng/mL | Plasma concentration, Minimum [2]: 7.91 ng/mL | Plasma concentration, Q1 [2]: 9.090 ng/mL | Plasma concentration, Mean (7 mg, Predose): 0.000 ng/mL | Plasma concentration, Minimum (7 mg, Predose): 0.00 ng/mL | Plasma concentration, Q1 (7 mg, Predose): 0.000 ng/mL | AUCinf D Mean [3]: 23.70 ng·h/mL/mg | AUCinf D Median [3]: 23.05 ng·h/mL/mg | Cmax D Mean [3]: 2.647 ng/mL/mg | Cmax D Median [3]: 2.640 ng/mL/mg | t½z Mean [3]: 4.498 h | t½z Median [3]: 4.170 h | AUCinf D Mean [4]: 18.90 ng·h/mL/mg | AUCinf D Median [4]: 19.60 ng·h/mL/mg | Cmax D Mean [4]: 2.076 ng/mL/mg | Cmax D Median [4]: 2.120 ng/mL/mg | t½z Mean [4]: 5.142 h | t½z Median [4]: 5.060 h | Plasma concentration, Maximum [5]: 34.9 ng/mL | Plasma concentration, Mean [5]: 32.52 ng/mL | Plasma concentration, Median [5]: 32.80 ng/mL | Plasma concentration, Minimum [5]: 28.2 ng/mL | Plasma concentration, Q1 [5]: 32.70 ng/mL | Plasma concentration, Q3 [5]: 34.00 ng/mL | Plasma concentration, Maximum [6]: 32.2 ng/mL | Plasma concentration, Mean [6]: 28.04 ng/mL | Plasma concentration, Median [6]: 27.20 ng/mL | Plasma concentration, Minimum [6]: 25.4 ng/mL | Plasma concentration, Q1 [6]: 26.70 ng/mL | Plasma concentration, Q3 [6]: 28.70 ng/mL | Plasma concentration, Maximum [7]: 33.7 ng/mL | Plasma concentration, Mean [7]: 25.36 ng/mL | Plasma concentration, Median [7]: 24.20 ng/mL | Plasma concentration, Minimum [7]: 20.9 ng/mL | Plasma concentration, Q1 [7]: 21.30 ng/mL | Plasma concentration, Q3 [7]: 26.70 ng/mL | Plasma concentration, Maximum [8]: 23.9 ng/mL | Plasma concentration, Mean [8]: 20.82 ng/mL | Plasma concentration, Median [8]: 19.50 ng/mL | Plasma concentration, Minimum [8]: 19.0 ng/mL | Plasma concentration, Q1 [8]: 19.10 ng/mL | Plasma concentration, Q3 [8]: 22.60 ng/mL | Plasma concentration, Maximum [9]: 21.4 ng/mL | Plasma concentration, Mean [9]: 18.56 ng/mL | Plasma concentration, Median [9]: 18.00 ng/mL | Plasma concentration, Minimum [9]: 15.6 ng/mL | Plasma concentration, Q1 [9]: 17.80 ng/mL | Plasma concentration, Q3 [9]: 20.00 ng/mL | Plasma concentration, Maximum [10]: 18.9 ng/mL | Plasma concentration, Mean [10]: 16.70 ng/mL | Plasma concentration, Median [10]: 18.00 ng/mL | Plasma concentration, Minimum [10]: 13.6 ng/mL | Plasma concentration, Q1 [10]: 14.90 ng/mL | Plasma concentration, Q3 [10]: 18.10 ng/mL | Plasma concentration, Maximum [11]: 13.4 ng/mL | Plasma concentration, Mean [11]: 10.53 ng/mL | Plasma concentration, Median [11]: 9.600 ng/mL | Plasma concentration, Minimum [11]: 8.06 ng/mL | Plasma concentration, Q1 [11]: 8.990 ng/mL | Plasma concentration, Q3 [11]: 12.60 ng/mL | AUCinf D Mean [12]: 19.27 ng·h/mL/mg | AUCinf D Median [12]: 18.75 ng·h/mL/mg | Cmax D Mean [12]: 2.200 ng/mL/mg | Cmax D Median [12]: 2.170 ng/mL/mg | t½z Mean [12]: 3.860 h | t½z Median [12]: 3.760 h | Plasma concentration, Maximum [13]: 79.9 ng/mL | Plasma concentration, Mean [13]: 63.58 ng/mL | Plasma concentration, Median [13]: 62.50 ng/mL | Plasma concentration, Minimum [13]: 54.5 ng/mL | Plasma concentration, Q1 [13]: 55.60 ng/mL | Plasma concentration, Q3 [13]: 66.50 ng/mL | Plasma concentration, Mean [14]: 54.37 ng/mL | Plasma concentration, Median [14]: 53.25 ng/mL | Plasma concentration, Minimum [14]: 44.7 ng/mL | Plasma concentration, Q1 [14]: 45.00 ng/mL | Plasma concentration, Mean [15]: 50.33 ng/mL | Plasma concentration, Median [15]: 50.10 ng/mL | Plasma concentration, Minimum [15]: 38.4 ng/mL | Plasma concentration, Q1 [15]: 40.90 ng/mL | Plasma concentration, Mean [16]: 45.77 ng/mL | Plasma concentration, Median [16]: 47.20 ng/mL | Plasma concentration, Minimum [16]: 33.3 ng/mL | Plasma concentration, Q1 [16]: 36.90 ng/mL | Plasma concentration, Mean [17]: 41.83 ng/mL | Plasma concentration, Median [17]: 39.80 ng/mL | Plasma concentration, Minimum [17]: 30.1 ng/mL | Plasma concentration, Q1 [17]: 34.80 ng/mL | Plasma concentration, Mean [18]: 33.63 ng/mL | Plasma concentration, Median [18]: 31.35 ng/mL | Plasma concentration, Minimum [18]: 27.4 ng/mL | Plasma concentration, Q1 [18]: 28.40 ng/mL
